# Measured values taken from patent publication US9822139B2, “Pharmaceutical composition containing cyclometalated N-heterocyclic carbene complexes for cancer treatment” (THE UNIVERSITY OF HONG KONG, priority 2009, dated 2017).
# How the values were obtained:
# [1] = tested on: nasopharyngeal carcinoma (SUNE1); experiment: MTT cytotoxicity assay, SUNE1; type: cell-based, human; conditions: 72 h
# Method: (§1) Example 2 describes the in vitro cytotoxicity, which is indicative of the induction of cell death and/or inhibition of cellular proliferation of cancer cells, of the cyclometalated N-heterocyclic complexes on cervical epithelioid carcinoma, hepatocellular carcinoma, leukemia, nasopharyngeal carcinoma, breast carcinoma, melanoma, and lung carcinoma.
# (§2) By means of MTT assays, the cytotoxic properties of cyclometalated N-heterocyclic carbene complexes (1-25) were determined toward some established human cancer cell lines including hepatocellular carcinoma (HepG2), cervical epithelioid carcinoma (HeLa), epithelial carcinoma (KB and its camptothecin-resistant cell line KB100), non-small cell lung carcinoma (NCI-H460), leukemia (HL-60), breast carcinoma (MDA-MB-231), melanoma (B16) and nasopharyngeal carcinoma (SUNE1). […] In terms of the IC50 values, they display similar cytotoxic properties compared to the reference complexes cisplatin and camptothecin (CPT).
# NCI-H460 tumor = experiment: In vivo anti-cancer study, NCI-H460 tumor in nude mice; set-up: species or system BALB/c AnN-nu mice (nude mice); conditions: twice-a-week intraperitoneal injection; for inhibition of NCI-H460 tumor growth: 28 days
# Source text: For the complex 14, four-week-old male BALB/c AnN-nu mice (nude mice) were obtained from the laboratory of PearL Materia Medica Development (Shenzhen) Ltd. Tumor cells (1×10^6) resuspended in DMEM medium were implanted by subcutaneous injection on the right flank of the mice. When tumors were approximately 50 mm^3 in size, animals were randomly separated into four groups to receive treatment of twice-a-week intraperitoneal injection of 20% PET vehicle control (20% PET=12% polyethylene glycol 400; 6% ethanol; 2% Tween 20; 80% phosphate-buffered saline), complex 14 at 1 mg/kg, complex 14 at 3 mg/kg or cyclophosphamide at 30 mg/kg. Volumes of the tumor were measured every 3 to 4 days. Tumor volume was calculated by the formula: abc/2 in which a, represents tumor length; b, the width; and c, tumor thickness, as measured with a caliper and expressed in millimeter. After 28 days, the mice were sacrificed and the tumors were taken out and their weights were measured.
# [2] = tested on: cervical epithelioid carcinoma (HeLa); experiment: MTT cytotoxicity assay, HeLa; type: cell-based, human; conditions: 72 h
# Method: as §1, §2
# [3] = tested on: epithelial carcinoma (KB); experiment: MTT cytotoxicity assay, KB; type: cell-based, human; conditions: 72 h
# Method: as §1, §2
# melanoma (B16) = experiment: MTT cytotoxicity assay, B16; type: cell-based, mouse; conditions: 72 h
# Method: as §1, §2
# [4] = tested on: non-small cell lung carcinoma (NCI-H460); experiment: MTT cytotoxicity assay, NCI-H460; type: cell-based, human; conditions: 72 h
# Method: as §1, §2
# [5] = tested on: lung fibroblast cells (CCD-19Lu); experiment: MTT cytotoxicity to non-cancerous cells, CCD-19Lu; type: cell-based, human; conditions: 72 h, non-cancerous lung fibroblast cells CCD-19Lu
# Method: as §2
# Using lung fibroblast cells (CCD-19Lu), the cytotoxicity of the complexes to non-cancerous cells was also examined.
# leukemia (HL-60) = experiment: MTT cytotoxicity assay, HL-60; type: cell-based, human; conditions: 72 h
# Method: as §1, §2
# [6] = tested on: breast carcinoma (MDA-MB-231); experiment: MTT cytotoxicity assay, MDA-MB-231; type: cell-based, human; conditions: 72 h, MBA-MD-231
# Method: as §1, §2
# [7] = tested on: camptothecin-resistant cell line KB100; experiment: MTT cytotoxicity assay, KB100; type: cell-based, human; conditions: 72 h
# Method: as §1, §2
# SUNE1 cells = experiment: Apoptosis induction by flow cytometry (AV-FITC / PI); type: cell-based; conditions: 72 h
# Method: Since cancer is characterized by uncontrolled cellular proliferation, there is a considerable interest in chemotherapeutic-induced apoptosis [J. C. Reed, Nature Rev. Drug Discov. 2002, 1, 111; D. W. Nicholson, Nature 2000, 407, 810]. Using fluorescein-labeled annexin V (AV-FITC) and propidium iodide (PI), the apoptosis-inducing properties of complex 1 in SUNE1 cells were examined by flow cytometry. […] The apoptosis-inducing properties of complex 1 at a lower dose (12 μM for 72 h) were also examined. […] According to the propagation profiles (formazan absorbance A550nm vs incubation time) of the treated SUNE1 cells, there is a trend of cellular growth inhibition in the presence of complex 1 at 12 μM level. Taken together with the flow cytometric results, complex 1 appears to inhibit cancer cell proliferation at 12 μM and induce apoptosis at higher doses (i.e. 60 μM).
# The apoptosis-inducing properties of complex 14 in SUNE1 cells were also examined by flow cytometry. […] The apoptosis-inducing properties of complex 14 at a lower dose (1 μM for 72 h) were also examined. […] Thus, complex 14 could induce apoptosis at 10 μM.
# [8] = tested on: hepatocellular carcinoma (HepG2); experiment: MTT cytotoxicity assay, HepG2; type: cell-based, human; conditions: 72 h
# Method: as §1, §2
# KB cells = experiment: Alkaline comet assay for DNA strand breaks; type: cell-based
Compound,IC50 [1],inhibition of NCI-H460 tumor growth (NCI-H460 tumor; 1 mg/kg),inhibition of NCI-H460 tumor growth (NCI-H460 tumor; 3 mg/kg),body-weight loss (NCI-H460 tumor; 3 or 1 mg/kg),IC50 [2],IC50 [3],IC50 (melanoma (B16)),IC50 [4],IC50 [5],IC50 (leukemia (HL-60)),IC50 [6],IC50 [7],viable cells unstained by both AV-FITC and PI (SUNE1 cells; 1 μM),SUNE1 cells in early apoptotic state (SUNE1 cells; 10 μM),IC50 [8],"strand breaks on chromosomal DNA (comet assay) (KB cells; 1 μg/ml, 3 h, KB cells)",reversal of DNA cleavage events upon second incubation (KB cells; second incubation at 55° C. for 10 min)
CCCCn1cc[n+](CCCC)[c]1[Pt-2]12[c]3ccccc3-c3cccc([n+]31)-c1cccc[n+]12.F[P-](F)(F)(F)(F)F (stereo not shown) [Complex 14],140 nM,significantly less effective,55%,no significant weight loss,50 nM,40 nM,150 nM,90 nM,10000 nM,80 nM,40 nM,80 nM,~90%,46.4%,770 nM,,
"N.N.[Cl][Pt][Cl] [cisplatin, reference compound]",2400 nM,,,,14900 nM,,,,> 100000 nM,,,,,,14600 nM,,
CCCn1cc[n+](CCC)[c]1[Pt-2]12[c]3ccccc3-c3cccc([n+]31)-c1cccc[n+]12.F[P-](F)(F)(F)(F)F (stereo not shown) [Complex 13],160 nM,,,,50 nM,140 nM,420 nM,180 nM,12000 nM,560 nM,280 nM,130 nM,,,1100 nM,,
CCCCn1cc[n+](C[n+]2ccn(CCCC)[c]2[Au-]23[c]4ccccc4-c4cccc([n+]42)-c2cccc[c]23)[c]1[Au-]12[c]3ccccc3-c3cccc([n+]31)-c1cccc[c]12.O=S(=O)([O-])C(F)(F)F.O=S(=O)([O-])C(F)(F)F [Complex 2],3300 nM,,,,7800 nM,10000 nM,10000 nM,3000 nM,> 100000 nM,5900 nM,4200 nM,28000 nM,,,7900 nM,,
CCCC[n+]1ccn(CCCn2cc[n+](CCCC)[c]2[Pt-2]23[c]4ccccc4-c4cccc([n+]42)-c2cccc[n+]23)[c]1[Pt-2]12[c]3ccccc3-c3cccc([n+]31)-c1cccc[n+]12.F[P-](F)(F)(F)(F)F.F[P-](F)(F)(F)(F)F (stereo not shown) [Complex 16],5600 nM,,,,3900 nM,,,,27000 nM,,,,,,7100 nM,,
CC(C)c1cc(C(C)C)c(-n2cc[n+](-c3c(C(C)C)cc(C(C)C)cc3C(C)C)[c]2[Au-]23[c]4ccccc4-c4cccc([n+]42)-c2cccc[c]23)c(C(C)C)c1.O=S(=O)([O-])C(F)(F)F [Complex 4],5500 nM,,,,2700 nM,3600 nM,7700 nM,6200 nM,11000 nM,1100 nM,3700 nM,4500 nM,,,1900 nM,,
Cn1cc[n+](C)[c]1[Pt-2]12[c]3ccccc3-c3cccc([n+]31)-c1cccc[n+]12.F[P-](F)(F)(F)(F)F (stereo not shown) [Complex 11],510 nM,,,,330 nM,660 nM,3100 nM,580 nM,5700 nM,580 nM,1500 nM,620 nM,,,310 nM,,
CCCC[n+]1ccn(Cn2cc[n+](CCCC)[c]2[Pt-2]23[c]4ccccc4-c4cccc([n+]42)-c2cccc[n+]23)[c]1[Pt-2]12[c]3ccccc3-c3cccc([n+]31)-c1cccc[n+]12.F[P-](F)(F)(F)(F)F.F[P-](F)(F)(F)(F)F (stereo not shown) [Complex 15],6400 nM,,,,8000 nM,,,,40000 nM,,,,,,9400 nM,,
CCn1cc[n+](CC)[c]1[Pt-2]12[c]3ccccc3-c3cccc([n+]31)-c1cccc[n+]12.F[P-](F)(F)(F)(F)F (stereo not shown) [Complex 12],320 nM,,,,480 nM,890 nM,1800 nM,570 nM,2100 nM,520 nM,1200 nM,770 nM,,,1300 nM,,
Cc1cc(C)c(-[n+]2ccn(CC(=O)c3ccccc3)[c]2[Au-]23[c]4ccccc4-c4cccc([n+]42)-c2cccc[c]23)c(C)c1.O=S(=O)([O-])C(F)(F)F [Complex 5],3400 nM,,,,3500 nM,4400 nM,2100 nM,9500 nM,11000 nM,1200 nM,13000 nM,4000 nM,,,2600 nM,,
CCCCn1cc[n+](C[n+]2ccn(CCCC)[c]2[Au-]23[c]4cc5ccccc5cc4-c4cc(-c5ccc(OC)cc5)cc([n+]42)-c2cc4ccccc4c[c]23)[c]1[Au-]12[c]3cc4ccccc4cc3-c3cc(-c4ccc(OC)cc4)cc([n+]31)-c1cc3ccccc3c[c]12.O=S(=O)([O-])C(F)(F)F.O=S(=O)([O-])C(F)(F)F [Complex 9],4500 nM,,,,7200 nM,5000 nM,9100 nM,5500 nM,9900 nM,7100 nM,6200 nM,3800 nM,,,4500 nM,,
COc1cccc2c1C(=O)c1c(O)c3c(c(O)c1C2=O)C[C@@](O)(C(=O)CO)C[C@@H]3O[C@H]1C[C@H](N)[C@H](O)[C@H](C)O1 [doxorubicin],,,,,,,,,,,,,,,,induced extensive strand breaks on chromosomal DNA,not
Cc1cc(C)c(-[n+]2ccn(CCCO)[c]2[Pt-2]23[c]4ccccc4-c4cccc([n+]42)-c2cccc[n+]23)c(C)c1.F[P-](F)(F)(F)(F)F (stereo not shown) [Complex 23],940 nM,,,,480 nM,,,,7500 nM,,,,,,780 nM,,
COc1ccc(-c2cc3[n+]4c(c2)-c2cc5ccccc5c[c]2[Au-]4([c]2n(C)cc[n+]2C)[c]2cc4ccccc4cc2-3)cc1.O=S(=O)([O-])C(F)(F)F [Complex 8],260 nM,,,,500 nM,420 nM,560 nM,180 nM,890 nM,130 nM,960 nM,18000 nM,,,1000 nM,,
CCCCn1cc[n+](CCO)[c]1[Pt-2]12[c]3ccccc3-c3cccc([n+]31)-c1cc3ccccc3c[n+]12.F[P-](F)(F)(F)(F)F (stereo not shown) [Complex 25],880 nM,,,,450 nM,,,,11000 nM,,,,,,680 nM,,
CCCn1cc[n+](CCC)[c]1[Pt-2]12[c]3ccccc3-c3cccc([n+]31)-c1cc3ccccc3c[n+]12.F[P-](F)(F)(F)(F)F (stereo not shown) [Complex 24],710 nM,,,,550 nM,,,,12000 nM,,,,,,880 nM,,
